Test results taken from patent publication US9572820B2, “Methods of treating autophagy-associated disorders and related pharmaceutical compositions, diagnostics, screening techniques and kits” (priority 2011, dated 2017).
Non-standard residues stand in square brackets, D forms with d. Residues, ends and D or L forms follow the SMILES beside them. Nle = CCCC[C@H](N)C(=O)O

tested on: LC3-GFP/RFP HeLa cells; assay: High-content imaging screen of LC3-GFP/RFP puncta (Cellomics ArrayScan); type: cell-based; settings: LC3-GFP/RFP puncta per cell, 4 hours incubation; hit = 3 standard deviations above or below mean of negative control wells
Procedure: FIG. 1X6. Use of Cellomics ArrayScan to detect induction of authophagy. […] Wells were scanned for number, area, or intensity of GFP+ or RFP+ puncta per cell using a Cellomics ArrayScan. Negative control (DMF-treated) wells were also measured. Each dot represents the data from a single well.
FIG. 2X6. Chemical library screen for modulation of autophagy. LC3-RFP/GFP HeLa cells were incubated with compounds from the chemical library for 4 hours, then fixed in 0.1% PFA. Wells were scanned using a Cellomics ArrayScan. […] Each dot represents the data from a single well.
FIG. 4X6. […] Wells were scanned using a Cellomics ArrayScan. […] Each dot represents the data from four separate wells, and error bars are standard deviation.
LC3 is a widely-used marker for autophagic vacuoles. HeLa cells stably transduced with LC3-GFP/RFP tandem construct generate fluorescent autophagic puncta, which are either green/yellow (early autophagosomes) or red (late autophagosomes fused with lysosomes, which degrades the GFP). By quantitating the number or total area of fluorescent puncta per cell, we can detect alterations in autophagic flux and regulation. […]
Using the above system, we performed two separate screens on a chemical library. This library contains 1,200 FDA-approved compounds, and represents wide functional and chemical diversity. This library spans four 384-well plates, with 64 wells on each plate with DMSO only as negative controls. […] A hit was defined as 3 standard deviations above or below the mean of the negative control wells on a given plate.

| Molecule | modulation of autophagy (agonist/inducer or antagonist/inhibitor) |
| --- | --- |
| CC(=O)[O-].[Hg+][c]1ccccc1 [phenylmercuric acetate] | antagonists or inhibitors of autophagy |
| CNCC(O)c1ccc(OC(=O)C(C)(C)C)c(OC(=O)C(C)(C)C)c1 (stereo not shown) [dipivefrin] | agonists or inducers of autophagy |
| CCN(CC)CCOc1ccc(C(=C(Cl)c2ccccc2)c2ccccc2)cc1.O=C(O)CC(O)(CC(=O)O)C(=O)O [clomiphene citrate (Z,E)] | agonists or inducers of autophagy |
| Oc1c(Cl)cc(Cl)c(Cl)c1Cc1c(O)c(Cl)cc(Cl)c1Cl [hexachlorophene] | agonists or inducers of autophagy |
| COCCCC/C(=N\OCCN)c1ccc(C(F)(F)F)cc1 [fluvoxamine] | agonists or inducers of autophagy |
| CC[N+](C)(CC)CCC[n+]1c(-c2ccccc2)c2cc(N)ccc2c2ccc(N)cc21.[I-].[I-] [propidium iodide] | agonists or inducers of autophagy |
| CNCCC=C1c2ccccc2C=Cc2ccccc21 [norcyclobenzaprine] | agonists or inducers of autophagy |
| CC(C)COCC(CN(Cc1ccccc1)c1ccccc1)N1CCCC1 (stereo not shown) [bepridil] | agonists or inducers of autophagy |
| CN(Cc1cc(Br)cc(Br)c1N)C1CCCCC1 [bromhexine] | agonists or inducers of autophagy |
| CCCCc1cc2ccccc2c(OCCN(C)C)n1 [dimethisoquin] | agonists or inducers of autophagy |
| CN1CCCC(CC2c3ccccc3Sc3ccccc32)C1 (stereo not shown) [metixene] | agonists or inducers of autophagy |
| N#Cc1c(Cl)c(Cl)c(Cl)c(C#N)c1Cl [tetrachlorisophthalonitrile] | antagonists or inhibitors of autophagy |
| COC(=O)Nc1nc2cc(C(=O)c3ccc(F)cc3)ccc2[nH]1 [flubendazole] | agonists or inducers of autophagy |
| O=C(Nc1ccccc1)OCC(CN1CCCCC1)OC(=O)Nc1ccccc1 (stereo not shown) [diperodon] | agonists or inducers of autophagy |
| CC12CC3CC(C)(C1)CC(N)(C3)C2 [memantine] | agonists or inducers of autophagy |
| CNCCC=C1c2ccccc2CCc2ccccc21 [nortriptyline] | agonists or inducers of autophagy |

same assay, conditions: from pp242 dose response

| Molecule | suboptimal dose that did not induce autophagy |
| --- | --- |
| CC(C)n1nc(-c2cc3cc(O)ccc3[nH]2)c2c(N)ncnc21 [pp242] | ~0.06 µM |

tested on: LC3-GFP/RFP HeLa cells; assay: Chemical library screen in the presence of a suboptimal dose of pp242; type: cell-based; settings: suboptimal pp242 (~0.06 uM) plus library compound

| Molecule | modulation of autophagy in combination with mTOR inhibitor (suboptimal pp242) |
| --- | --- |
| Cc1cccc(C)c1N=C1NCCCS1 [xylazine] | effective as autophagy modulators in combination |
| C[C@H]1O[C@@H](O[C@H]2[C@@H](O)C[C@H](O[C@H]3[C@@H](O)C[C@H](O[C@H]4CC[C@@]5(C)[C@H](CC[C@@H]6[C@@H]5C[C@@H](O)[C@]5(C)[C@@H](C7=CC(=O)OC7)CC[C@]65O)C4)O[C@@H]3C)O[C@@H]2C)C[C@H](O)[C@@H]1O [digoxin] | effective as autophagy modulators in combination |
| O=C1NCCN1CCN1CCC(c2cn(-c3ccc(F)cc3)c3ccc(Cl)cc23)CC1 [sertindole] | effective as autophagy modulators in combination |
| CCCCC(CC)CN1CN(CC(CC)CCCC)CC(C)(N)C1 (stereo not shown) [hexetidine] | effective as autophagy modulators in combination |

tested on: IL-1α; assay: IL-1α release (ELISA) from LPS+IFN-γ stimulated BMM; type: cell-based, murine; settings: Atg5fl/fl LysM-Cre+ BMM, ALLN 100 μM

| Molecule | excess IL-1α production |
| --- | --- |
| CCCC[C@@H](C=O)NC(=O)[C@H](CC(C)C)NC(=O)[C@H](CC(C)C)NC(C)=O [ALLN] (Ac-Leu-Leu-[Nle]-aldehyde) | completely abrogated |

same assay, conditions: Atg5fl/fl LysM-Cre− BMM, LPS+IFN-γ, 12 h; 50 μg/ml rapamycin, 10 mM 3-MA or 100 nM Bafilomycin A1

| Molecule | IL-1α secreted |
| --- | --- |
| Cn1cnc(N)c2ncnc1-2 [3-methyladenine] | significantly increased |

tested on: naïve CD4 T cells; assay: In vitro Th17 polarization of naïve CD4 T cells (intracellular IL-17A, flow cytometry); type: cell-based, mice; settings: with TGF-β 5 ng/ml and IL-6 20 ng/ml; IL-1α or IL-1β 20 ng/ml, day 4

| Molecule | intracellular levels of IL-17A |
| --- | --- |
| IL-1α: cytokine used at 20 ng/ml to promote Th17 differentiation (protein, UniProt P01583 113-271, looked up) Interleukin-1 alpha: SAPFSFLSNVKYNFMRIIKYEFILNDALNQSIIRANDQYLTAAALHNLDEAVKFDMGAYKSSKDDAKITVILRISKTQLYVTAQDEDQPVLLKEMPEIPKTITGSETNLLFFWETHGTKNYFTSVAHPNLFIATKQDYWVCLAGGPPSITDFQILENQA | elevated |

tested on: IL-1β; assay: IL-1β secretion from LPS-pretreated BMMs (ELISA); type: cell-based, murine; settings: pp242 in full medium, 1 h
Procedure: FIG. 1X3. induction of autophagy enhances IL-1β secretion. (A) Atg5fl/fl Cre^− and Atg^5fl/fl Cre^+ bone marrow-derived macrophages (BMMs), pretreated overnight with 100 ng/ml LPS, were stimulated for 1 h with the inflammasome agonist nigericin ([…]) with (Starvation; EBSS) or without (Full; full medium) autophagic induction. Cell culture supernatants were assayed for murine IL-1β by ELISA. Data represent mean values±s.d. (nX3); *Po0.05. (B) LPS-pretreated Atg5fl/fl Cre^− and Atg^5fl/fl Cre^+ BMMs were stimulated with […] nigericin for 1 h in OptiMEM and the release of active caspase-1 and IL-1β was determined by immunoblotting. (C) As in (A), assayed for IL-18. Data represent mean values±s.d. (nX3); *Po0.05. (D) LPS-pretreated BMMs were exposed to alum ([…]) for 1 h with or without autophagic induction by starvation. Secreted IL-1β was measured as in (A). Data represent mean values±s.d. (nX3); *Po0.05. (E) LPS-pretreated BMMs were exposed to silica ([…]) for 1 h with or without autophagic induction by starvation. Secreted IL-1β was measured as in (A). Data represent mean values±s.d. (nX3); *Po0.05. (F) BMMs were transfected with scramble (Scr) control siRNA or siRNAs against ASC and NLRP3. After 48 h following transfection, cells were treated overnight with LPS and subjected to nigericin ([…]) and starvation for 1 h. Data represent mean values±s.d. (nX3); *Po0.05. (G) Immunoblot analysis of ASC and NLRP3 knockdowns. (H) BMMs were transfected with scramble
FIG. 2X3 Autophagic pathway progression promotes secretion of inflammasome substrates. (A, B) LPS-pretreated BMMs were treated with […] nigericin (Nig) and 100 nM bafilomycin A1 (Baf) with (Starvation) or without (Full) autophagic induction for 1 h and secreted IL-1β (A) and IL-18 (B) were measured. Data represent mean values+s.d. (nX3); *Po0.05. (C) LPS-pretreated BMMs were treated with […] of silica and 100 nM bafilomycin A1 (Baf) with (Starvation) or without (Full) autophagic induction for 1 h and secreted IL-1β were measured. Data represent mean values±s.d. (nX3); *Po0.05. (D) Colocalization of cathepsin B with the basal autophagic machinery factor LC3 and IL-1b. Fluorescence; LC3 (green, Alexa488), IL-1β (red, Alexa568), and cathepsin B (blue, Alexa633). BMMs from GFP-LC3 knockin mice were treated with LPS and then analysed for immunofluorescence. (E) Colocalization line tracing analysis from images in (D). (F) LPS-pretreated BMMs were treated with […] nigericin and cathepsin B inhibitor CA-074 Me […] , with (Starvation) or without (Full) autophagic induction, for 1 h and secreted IL-1β was measured. […] (G) LPS-pretreated Atg^5fl/fl Cr^+ and Atg^5fl/fl Cre^− BMMs were stimulated with […] nigericin for 1 h in OptiMEM and release of cathepsin B was determined by immunoblotting. […]

| Molecule | secretion of IL-1β |
| --- | --- |
| CC(C)n1nc(-c2cc3cc(O)ccc3[nH]2)c2c(N)ncnc21 [pp242] | increased secretion of IL-1β |
